Data set [1] in a line: in vitro. The conditions noted are these: bovine.
The test system of data set [2] is Yellow fever virus (YFV), 17D strain. Nature of the data set: microbe, parasite or virus in culture. It counts as cell-based. The following applies: Vero.
The test system of data set [3] is Bovine viral diarrhea virus (BVDV), TN131 strain. Briefly: microbe, parasite or virus in culture. It counts as cell-based. The conditions noted are these: Bovine viral diarrhea virus isolates and strains.
The subject of data set [4] is GAPDH mRNA. Nature of the data set: Cytotoxicity by GAPDH mRNA in HCV replicon-containing cells. The following applies: FIG. 1B.
The test system of data set [5] is WNV. Nature of the data set: Virus yield reduction (VYR) assay, West Nile virus. It counts as cell-based. The following applies: for EC90: West Nile virus, read-out: Virus yield reduction assay EC90.
The test system of data set [6] is Vero cells.
Data set [7] relates to Banzi virus (BV), H 336 strain. Briefly: microbe, parasite or virus in culture. It counts as cell-based. The following applies: Vero.
The nature of data set [8]: Cytotoxicity in toxicity control wells of the WNV tests. The following applies: African green monkey, Vero 76 cells (kidney), uninfected toxicity control wells. Type of data set: cell-based.
For data set [9], the system named is WNV. Nature of the data set: Inhibition of CPE assay at time points after initiation (Table 2). Type of data set: cell-based, West Nile virus. The following applies: for EC50: West Nile virus, 144 h, read-out: Inhibition of CPE assay EC50.
The nature of data set [10]: in vitro. The conditions noted are these: African green monkey.
Data set [11] concerns West Nile virus New York Isolate. Nature of the data set: CPE inhibition assay against West Nile virus New York isolate in Vero cells. It counts as cell-based.
Data set [12] relates to West Nile Virus ATCC VR-82 (strain B956). Nature of the data set: CPE inhibition assay against West Nile virus ATCC VR-82 (visual and neutral red reading). Type of data set: cell-based. The conditions noted are these: Vero.
Data set [13] in a line: in vitro. The following applies: African green monkey. The source holds these as a separate data set.
The test system of data set [14] is WNV. The following applies: Morrey et al., 2002; cited from earlier work.
[15] abbreviates: ATCC VR-82 columns, NR (Neutral red).
Where [16] appears, read: New York Isolate columns, NR (Neutral red).
The mark [17] stands for this setting: New York Isolate columns, Visual.
Setting [18] is: 144 h, New York Isolate, Visual, Vero cells, 6 days post-virus exposure.
Setting [19] is: New York Isolate, NR (Neutral red), Vero cells.

SMILES strings stand for the structures. Values after ≈ are worked out from the molar mass of the structure shown. Where two headings read alike, the source gives them in different places.

This is an account of results in patent publication US20060035848A1, “Broad-spectrum inhibitor of viruses in the Flaviviridae family” (ZymeTx, Inc., priority 2004, published 2006).

On to `Nc1nc(=O)n2ccn([C@@H]3O[C@H](CO)[C@@H](O)[C@H]3O)c2n1` [ZX-2401, 2-amino-8-(β-D-ribofuranosyl) imidazo [1,2-a]-s-triazine-4-one], for which the CC50 in data set [1], in data set [10] and in data set [13] was more than 100 µg/mL in each case. The EC50 – broadly, the concentration that produces a half-maximal response – in [2] came out at 10 µg/mL (≈ 35.3 µM); in [3], 0.6 µg/mL (≈ 2.12 µM); in data set [7], 5 µg/mL (≈ 17.7 µM); in [9], 15 µg/mL (≈ 53 µM); in [11] (setting [18]), 9.5 µg/mL (≈ 33.5 µM); in data set [11] (MOI 1.6 × 10^−3, New York strain in Vero cells), 20 µg/mL (≈ 70.6 µM). Moreover, the EC50 in data set [11] (MOI 1.6 × 10^−4, New York strain in Vero cells) was 12 µg/mL (≈ 42.4 µM); in [11] (MOI 5 × 10^−4, New York strain in Vero cells) it was 15 µg/mL (≈ 53 µM); in [11] (MOI 5 × 10^−5 (5 CCID50), New York strain in Vero cells) it was 15 µg/mL (≈ 53 µM); in data set [11] (setting [19]), 8 µg/mL (≈ 28.2 µM); in data set [12], 3 µg/mL (≈ 10.6 µM); in data set [12] (144 h), less than 4.6 µg/mL. In data set [4], the “toxicity as measured by GAPDH mRNA levels” value is reported as “no toxicity”. In addition, the values for the EC90 in data set [5] (48 h) and in data set [5] (144 h) were 3.3 µg/mL (≈ 11.7 µM) and 40 µg/mL (≈ 141 µM), respectively. Moreover, in data set [6], the “Toxicity by visual inspection of treated uninfected cultures” value is on record as “No toxicity”. Besides, the CC50 at 6 days was more than 100 µg/mL in data set [8] (setting [15]); more than 100 µg/mL in data set [8] (ATCC VR-82 columns, Visual); more than 100 µg/mL in data set [8] (setting [16]); more than 100 µg/mL in data set [8] (setting [17]).

Take `O=c1cnn([C@@H]2O[C@H](CO)[C@@H](O)[C@H]2O)c(=O)[nH]1` [6-aza-U, 6-azauridine, reference compound]: the EC90 (usually the concentration at which the effect reaches the 90% level) in [5] (48 h) is 1.6 µg/mL (≈ 6.53 µM); in data set [5] (144 h), 431 µg/mL (≈ 1760 µM). In data set [5] (day 6, compared to no addition of fresh compound), the “Effect of addition of fresh compound every 2 days on VYR” value is “did not improve”. In addition, the CC50 at 6 days is more than 100 µg/mL in data set [8] (setting [15]); 85 µg/mL (≈ 347 µM) in data set [8] (ATCC VR-82 columns, Visual); more than 100 µg/mL in [8] (setting [16]); 85 µg/mL (≈ 347 µM) in data set [8] (setting [17]). In data set [9] (8 days post-virus initiation, cells treated with any concentration), this molecule gave a CPE observed of 100%. Besides, the EC50 is 3.1 µg/mL (≈ 12.6 µM) in data set [9]; 0.9 µg/mL (≈ 3.67 µM) in data set [11] (setting [18]); 1.6 µg/mL (≈ 6.53 µM) in data set [11] (setting [19]); 5 µg/mL (≈ 20.4 µM) in data set [12]; 22 µg/mL (≈ 89.7 µM) in data set [12] (144 h).

As for `NC(=O)c1ncn([C@@H]2O[C@H](CO)[C@@H](O)[C@H]2O)n1` [Ribavirin, reference compound], the CC50 in data set [1], in data set [10] and in [13] was more than 100 µg/mL each time. For the same molecule, the values for the EC50 in [2], in data set [3] and in data set [7] were 32 µg/mL (≈ 131 µM), 5 µg/mL (≈ 20.5 µM) and 60 µg/mL (≈ 246 µM), respectively. Further, the “activity against WNV in tissue culture” value in data set [14] is on record as “poor activity”.
